Assay results published in patent US20150239889A1, “PYRAZOLOPYRIMIDINE COMPOUND” (MITSUBISHI TANABE PHARMA CORPORATION, priority 2012, published 2015).

Assays:
human HIF-PHD2 = molecular target: T1, human HIF-PHD2 (Homo sapiens, UniProt Q9GZT9); assay: HIF-PHD inhibition assay (fluorescence polarization), human HIF-PHD2; assay type: biochemical; conditions: 2-oxoglutaric acid 3.33 μmol/L
T1 construct: purchased CrystalGenomics Ltd
Outline: (§1)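 Activity was derived as the fluorescence polarization (mP) after enzyme addition minus that measured before enzyme addition. Probe bore a 5′-fluoresceinamide (FAM) label with an aminocaproic acid (ACA) linker.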

human HIF-PHD3 = molecular target: T2, human HIF-PHD3 (Homo sapiens, UniProt Q9H6Z9); assay: HIF-PHD inhibition assay (fluorescence polarization), human HIF-PHD3; assay type: biochemical; conditions: 2-oxoglutaric acid 166 μmol/L
T2 construct: purchased CrystalGenomics Ltd
Outline: as §1

Hep3B cells = assay: EPO production assay (ELISA of culture supernatant); assay type: cell-based; conditions: Homo sapiens, 3 μmol/L test compound, 48 hours, relative to control (0.1% DMSO), read-out: EPO production stimulation rate with 3 μmol/L test compound
Outline: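 Hep3B cells (40000/well) switched to MEM with 0.5% FBS and treated with compound (0.1% DMSO) for 48 h at 37 °C. Supernatant EPO measured by ELISA; value is fold stimulation at 3 μmol/L compound over unstimulated control.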

T2 sequence (Q9H6Z9 whole entry): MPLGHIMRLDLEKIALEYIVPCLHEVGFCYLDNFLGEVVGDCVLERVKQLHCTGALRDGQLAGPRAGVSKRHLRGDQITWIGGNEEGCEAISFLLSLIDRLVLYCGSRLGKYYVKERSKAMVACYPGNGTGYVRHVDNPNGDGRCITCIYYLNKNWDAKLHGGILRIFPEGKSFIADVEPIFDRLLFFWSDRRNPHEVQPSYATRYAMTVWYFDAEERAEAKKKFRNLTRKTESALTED
T1 sequence (Q9GZT9 2-426 limits assumed): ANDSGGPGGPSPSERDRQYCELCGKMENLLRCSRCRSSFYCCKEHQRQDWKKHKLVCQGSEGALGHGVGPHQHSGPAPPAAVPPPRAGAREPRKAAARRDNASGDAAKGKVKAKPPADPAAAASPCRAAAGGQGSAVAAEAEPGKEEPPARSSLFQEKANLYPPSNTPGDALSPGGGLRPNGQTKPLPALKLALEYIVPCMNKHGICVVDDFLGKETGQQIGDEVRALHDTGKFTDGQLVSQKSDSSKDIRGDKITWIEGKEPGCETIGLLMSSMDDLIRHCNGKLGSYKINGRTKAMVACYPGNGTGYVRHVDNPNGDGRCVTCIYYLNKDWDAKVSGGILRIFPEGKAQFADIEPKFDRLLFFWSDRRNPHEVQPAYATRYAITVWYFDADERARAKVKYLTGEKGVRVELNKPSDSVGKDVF

Row | Compound | IC50 (human HIF-PHD2) [nM] | IC50 (human HIF-PHD3) [nM] | fold induction at 3 µM (Hep3B cells)
1 | CC(C)(C)c1ccc(OCCCn2ncc3nc(-n4cc(C(=O)O)cn4)nc(O)c32)cc1 [Example 178] | 24 | 570 | 37
2 | CCC(c1ccc(Cl)cc1)n1ncc2nc(-n3cc(C(=O)O)cn3)nc(O)c21 (single isomer, unassigned) [Example 323] | 22 | 300 | 3.8
3 | O=C(O)c1cnn(-c2nc(O)c3c(cnn3Cc3ccc(F)c(-c4ccccc4)c3)n2)c1 [Example 51] | 34 | 190 | 3.9
4 | Cc1ncccc1-c1ccc(Cn2ncc3nc(-n4cc(C(=O)O)cn4)nc(O)c32)cc1F [Example 106] | 7.4 | 28 | 5.2
5 | C[C@@H](c1ccc2ccccc2c1)n1ncc2nc(-n3cc(C(=O)O)cn3)nc(O)c21 [Example 31] | 13 | 270 | 4.7
6 | Cc1nn(Cc2ccc(-c3ccccc3)cc2)c2c(O)nc(-n3cc(C(=O)O)cn3)nc12 [Example 228] | 10 | 68 | 3.9
7 | O=C(O)c1cnn(-c2nc(O)c3c(cnn3Cc3ccccc3-c3ccccc3)n2)c1 [Example 38] | 150 | 1800 | 2.9
8 | O=C(O)c1cnn(-c2nc(O)c3c(cnn3CCCOc3ccc(-c4ccccc4)cc3)n2)c1 [Example 196] | 20 | 300 | 25
9 | O=C(O)c1cnn(-c2nc(O)c3c(cnn3Cc3ccc4ccccc4c3)n2)c1 [Example 29] | 37 | 200 | 4.2
10 | CC(C)(COc1ccc(Cl)cc1)Cn1ncc2nc(-n3cc(C(=O)O)cn3)nc(O)c21 [Example 197] | 190 | 760 | 5.8
11 | O=C(O)c1cnn(-c2nc(O)c3c(cnn3Cc3cccc(-c4ccc(OC(F)(F)F)cc4)c3)n2)c1 [Example 43] | 15 | 200 | 6.5
12 | O=C(O)c1cnn(-c2nc(O)c3c(cnn3Cc3ccc(-c4ccc(F)cc4F)nc3)n2)c1 [Example 104] | 10 | 110 | 5.4
13 | O=C(O)c1cnn(-c2nc(O)c3c(cnn3C[C@H]3CC[C@H](c4ccccc4)CC3)n2)c1 [Example 155] | 10 | 70 | 11
14 | Cc1ccccc1-c1ccc(Cn2ncc3nc(-n4cc(C(=O)O)cn4)nc(O)c32)cc1F [Example 102] | 19 | 150 | 9.8
15 | O=C(O)c1cnn(-c2nc(O)c3c(cnn3CC3CCCCCCC3)n2)c1 [Example 159] | 110 | 380 | 4.5
16 | C[C@@H](c1ccc(-c2ccccc2F)cc1)n1ncc2nc(-n3cc(C(=O)O)cn3)nc(O)c21 [Example 112] | 13 | 87 | 28
17 | O=C(O)c1cnn(-c2nc(O)c3c(cnn3Cc3ccc(-c4ccccc4C(F)(F)F)cc3F)n2)c1 [Example 84] | 13 | 200 | 4.3
18 | O=C(O)c1cnn(-c2nc(O)c3nn(Cc4ccc5ccccc5c4)cc3n2)c1 [Example 242] | 17 | 150 | 1.7
19 | Cc1ccc(O[C@H]2CC[C@H](Cn3ncc4nc(-n5cc(C(=O)O)cn5)nc(O)c43)CC2)cc1 [Example 151] | 13 | 220 | 38
20 | O=C(O)c1cnn(-c2nc(O)c3c(cnn3Cc3cccc(OC(F)(F)F)c3)n2)c1 [Example 11] | 62 | 470 | 2.5
21 | C[C@H](c1ccc2ccccc2c1)n1ncc2nc(-n3cc(C(=O)O)cn3)nc(O)c21 [Example 30] | 72 | 460 | 5.5
22 | O=C(O)c1cnn(-c2nc(O)c3c(cnn3CCc3ccc(-c4ccccc4)cc3)n2)c1 [Example 130] | 6 | 130 | 19
23 | O=C(O)c1cnn(-c2nc(O)c3[nH]ncc3n2)c1 [Example 484] | 35 | > 1000 | 1.6

More lines, in order of falling IC50 (human HIF-PHD2), values ahead:

Row | IC50 (human HIF-PHD2) [nM] | IC50 (human HIF-PHD3) [nM] | Compound | fold induction at 3 µM (Hep3B cells)
24 | 130 | 1100 | O=C(O)c1cnn(-c2nc(O)c3c(cnn3CC3(COc4ccc5c(c4)CCCC5)CC3)n2)c1 [Example 199] | 5
25 | 89 | 1200 | O=C(O)c1cnn(-c2nc(O)c3c(cnn3CC3(COc4ccc(Cl)cc4)CC3)n2)c1 [Example 198] | 3.2
26 | 77 | 650 | O=C(O)c1cnn(-c2nc(O)c3c(cnn3Cc3cccc(-c4ccccc4C(F)(F)F)c3)n2)c1 [Example 47] | 4.4
27 | 63 | 180 | O=C(O)c1cnn(-c2nc(O)c3nn(Cc4ccc(Cl)cc4F)cc3n2)c1 [Example 244] | 1.4
28 | 59 | 900 | O=C(O)c1cnn(-c2nc(O)c3c(cnn3CCC3CCOCC3)n2)c1 [Example 153] | 1.5
29 | 52 | 290 | O=C(O)c1cnn(-c2nc(O)c3c(cnn3Cc3cc(F)cc(Br)c3)n2)c1 [Example 15] | 1.7
30 | 52 | 400 | CC1(C)C(Cn2ncc3nc(-n4cc(C(=O)O)cn4)nc(O)c32)C1(C)C [Example 162] | 18
31 | 48 | 560 | O=C(O)c1cnn(-c2nc(O)c3c(cnn3Cc3cc(F)cc(C(F)(F)F)c3)n2)c1 [Example 8] | 5.4
32 | 45 | 320 | CC(C)(Cn1ncc2nc(-n3cc(C(=O)O)cn3)nc(O)c21)c1ccc2ccccc2c1 [Example 118] | 17
33 | 32 | 510 | O=C(O)c1cnn(-c2nc(O)c3c(cnn3CCOc3cccc4ccccc34)n2)c1 [Example 206] | 2.2
34 | 25 | 350 | O=C(O)c1cnn(-c2nc(O)c3c(cnn3Cc3cccc(-c4ccccc4)c3)n2)c1 [Example 39] | 5
35 | 19 | 280 | O=C(O)c1cnn(-c2nc(O)c3c(cnn3CC3CCN(c4ccc(C(F)(F)F)cc4)CC3)n2)c1 [Example 170] | 19
36 | 17 | 140 | O=C(O)c1cnn(-c2nc(O)c3c(cnn3Cc3ccc(-c4ccccc4Cl)cc3)n2)c1 [Example 62] | 12
37 | 17 | 110 | O=C(O)c1cnn(-c2nc(O)c3c(cnn3Cc3ccc(-c4ccc(F)cc4)cc3)n2)c1 [Example 66] | 33
38 | 13 | 110 | COc1cccc(Cl)c1-c1ccc(Cn2ncc3nc(-n4cc(C(=O)O)cn4)nc(O)c32)cc1 [Example 69] | 7.8
39 | 11 | 360 | C[C@@H](c1ccc2ccccc2c1)n1nc(F)c2nc(-n3cc(C(=O)O)cn3)nc(O)c21 [Example 442] | 3.3
